SMILES strings stand for the structures. Bounds are passed on as bounds.

Series [1] can be described thus: Maximum tolerance (death observed 48 hours after administration). Particulars: mouse, in vivo; mice; dose just smaller than the dose inducing death, observed 48 hours after the administration.
Series [2] can be described thus: Level of hopanthenic acid in blood plasma after oral administration (GC-MS). The class given is in vivo, SD-male rats. Particulars: rat, 389.4 umol/kg, 389.4 µmole/kg, rats, n=4, read-out: Level of hopanthenic acid in the blood plasma (average ± S.D.). The protocol:
SD-male rats, weighing about 200 g, 7 weeks age, having been fasted overnight (one group: 4 rats) were used. To each rat was orally administered a suspension (2 ml) of a test compound in a 0.5 % carboxymethyl cellulose solution with a stomach sonde (dose of test compound: […], corresponding to 100 mg/kg of calcium hopanthenate).
One or two hours after the aministration, the rats were killed by cutting whole carotid arteries, and the blood was collected. The blood of each rat was centrifuged (2,800 r.p.m., 15 minutes) to separate blood plasma. Concentration of hopanthenic acid in the blood plasma (0.1 ml) was measured by gas chromatography and mass spectrometry.

The nature of series [3]: Level of hopanthenic acid in the cerebrum after oral administration (GC-MS). The format is in vivo, SD-male rats. Particulars: rat, 389.4 umol/kg, 389.4 µmole/kg, rats, n=4, read-out: Level of hopanthenic acid in the cerebrum (average ± S.D.). The protocol: SD-male rats, weighing about 200 g, 7 weeks age, having been fasted overnight (one group: 4 rats) were used. To each rat was orally administered a suspension (2 ml) of a test compound in a 0.5 % carboxymethyl cellulose solution with a stomach sonde (dose of test compound: 389.4 #mole/kg, corresponding to 100 mg/kg of calcium hopanthenate). Two or three hours after the administration, the cerebrum was taken out and washed with physiological saline solution. To the cerebrum was added 9 times volume of water, and the mixture was homogenated with a homogenizer for one minute under ice-cooling and then centrifuged at 10,000 r.p.m. at 4°C for one hour. Concentration of hopanthenic acid in the supernatant (1 ml, corresponding to 0.1 g of the cerebrum) was measured by gas chromatography and mass spectrometry. The test compounds were the same as used in Experiment 1.

The mark [4] stands for this setting: Two hours after the administration.

Take `CC(C)C(=O)OCC(C)(C)[C@@H](O)C(=O)NCCCC(=O)O`: in series [1], the maximal tolerated dose (MTD) (commonly the largest dose that counted as tolerated) at 48 h is greater than 2000 mg/kg.

In turn, `CC(C)CC(=O)OCC(C)(C)[C@@H](O)C(=O)NCCCC(=O)O` [Compound No. 2, D-4-[N-(4-Isovaleryloxy-3,3-dimethyl-2-hydroxy-n-butyryl)-amino]-n-butyric acid] had an MTD at 48 h in series [1] greater than 2000 mg/kg.

With `CC(C)(CO)[C@@H](O)C(=O)NCCCC(=O)O` [Control, Calcium D-4-[N-(2,4-dihydroxy-3,3-dimethyl-n-butyryl)amino]-n-butyrate], in series [2] (One hour after the administration), the concentration at 1 h came out at 19.4 ± 1.9 µg/mL. Besides, the concentration at 2 h in series [2] (setting [4]) was 14.2 ± 1.6 µg/mL; in series [3] (setting [4]) it was 700 ± 110 ng/g. Further, the concentration at 3 h in series [3] (Three hours after the administration) is 370 ± 70 ng/g.

Values taken from patent EP0117260A1, “4-Aminobutyric acid derivatives, a process for the preparation thereof and a pharmaceutical composition containing said derivatives” (priority 1983, dated 1984).
